Reference: patent US20080228408A1, “Method for Determining the State of an Ensemble of Cells and System for the Implementation of the Method” (priority 2005, published 2008)

System: neuronal cells
Experiment: Toxicogenomic DNA chip test: gene expression level (RES) in cells exposed to the compound compared to unexposed cells
Format: cell-based
Conditions: Neuron
Description: One wishes to carry out the evaluation of the toxicity of a collection of (15) pesticides using a toxicogenomic analysis of the impact of these pesticides on neuronal cells, according to 4 modes of exposure of the cells to the compounds:
DNA chips built specifically to test the expression level of the 51 genes in cells under study, each chip being configured only for one gene in our case, each chip allowing to carry out for each gene a redundant number of measurements (16) in order to stabilize the levels of expression by analysing the results on average. The spots on the chips are numbered sp1 to sp16.
An automated device D5 allowing, on signal of execution of the C2 test, to take a E1 sample of the cell culture C (non exposed) and a E2 sample of the cell culture C exposed to the compound by the device described previously under the conditions specified with the configuration, then to use the D1 device to select a DNA chip corresponding to the gene specified at the time of the configuration, and to put the samples E1 and E2 thus obtained in the presence of the aforementioned DNA chip according to the methods described in the D1 device,
The result of a test, RES, transmitted by the Resource Unit to the PC, is a raw numerical value which indicates the expression level of the gene indicated in the configuration, for the cell exposed to the compound under the conditions of concentration and exposure duration specified in the configuration, compared to the expression level of the same gene in an unexposed cell of identical nature.
The following results are based on 3 evaluations, each using a different strategy, the target cells being neuronal cells, the mode of exposure being Expo11.
The results presented in table 2 show the values obtained in (052) for the evaluation of Paraquat according to the 4 modes Expo11, Expo12, Expo21, Expo22 carried out. The missing data are not relevant (ranging between 0.5 and 2 strictly).

SMILES: C[n+]1ccc(-c2cc[n+](C)cc2)cc1 [Paraquat]
- A2M gene expression level RES (exposed/unexposed cells) (C1 (IC50), 24 h (Expo11)): 0.43
- AITCH gene expression level RES (exposed/unexposed cells) (C1 (IC50), 24 h (Expo11)): 0.13
- ALB gene expression level RES (exposed/unexposed cells) (C1 (IC50), 24 h (Expo11)): 0.57
- APAF1 gene expression level RES (exposed/unexposed cells) (C1 (IC50), 24 h (Expo11)): 0.47
- AR gene expression level RES (exposed/unexposed cells) (C1 (IC50), 24 h (Expo11)): 0.39
- ATF6 gene expression level RES (exposed/unexposed cells) (C1 (IC50), 24 h (Expo11)): 0.48
- ATM gene expression level RES (exposed/unexposed cells) (C1 (IC50), 24 h (Expo11)): 0.42
- BAX gene expression level RES (exposed/unexposed cells) (C1 (IC50), 24 h (Expo11)): 0.40
- BCL2 gene expression level RES (exposed/unexposed cells) (C1 (IC50), 24 h (Expo11)): 0.44
- BZRP gene expression level RES (exposed/unexposed cells) (C1 (IC50), 24 h (Expo11)): 0.53
- C12ORF8 gene expression level RES (exposed/unexposed cells) (C1 (IC50), 24 h (Expo11)): 0.57
- CALR gene expression level RES (exposed/unexposed cells) (C1 (IC50), 24 h (Expo11)): 0.52
- CDC25C gene expression level RES (exposed/unexposed cells) (C1 (IC50), 24 h (Expo11)): 0.62
- CDK4 gene expression level RES (exposed/unexposed cells) (C1 (IC50), 24 h (Expo11)): 0.59
- CDKN1A gene expression level RES (exposed/unexposed cells) (C1 (IC50), 24 h (Expo11)): 0.46
- CREB1 gene expression level RES (exposed/unexposed cells) (C1 (IC50), 24 h (Expo11)): 0.64
- CTSB gene expression level RES (exposed/unexposed cells) (C1 (IC50), 24 h (Expo11)): 0.51
- CTSD gene expression level RES (exposed/unexposed cells) (C1 (IC50), 24 h (Expo11)): 0.39
- EGF gene expression level RES (exposed/unexposed cells) (C1 (IC50), 24 h (Expo11)): 0.47
- EPHX1 gene expression level RES (exposed/unexposed cells) (C1 (IC50), 24 h (Expo11)): 0.45
- FOS gene expression level RES (exposed/unexposed cells) (C1 (IC50), 24 h (Expo11)): 0.43
- GADD45A gene expression level RES (exposed/unexposed cells) (C1 (IC50), 24 h (Expo11)): 0.54
- GPX1 gene expression level RES (exposed/unexposed cells) (C1 (IC50), 24 h (Expo11)): 0.49
- GSS gene expression level RES (exposed/unexposed cells) (C1 (IC50), 24 h (Expo11)): 0.54
- GSTM3 gene expression level RES (exposed/unexposed cells) (C1 (IC50), 24 h (Expo11)): 0.71
- HOXD1 gene expression level RES (exposed/unexposed cells) (C1 (IC50), 24 h (Expo11)): 0.44
- HSPA5 gene expression level RES (exposed/unexposed cells) (C1 (IC50), 24 h (Expo11)): 0.55
- HSPA9B gene expression level RES (exposed/unexposed cells) (C1 (IC50), 24 h (Expo11)): 0.58
- JUN gene expression level RES (exposed/unexposed cells) (C1 (IC50), 24 h (Expo11)): 0.61
- MDM2 gene expression level RES (exposed/unexposed cells) (C1 (IC50), 24 h (Expo11)): 0.37
- NFKB1 gene expression level RES (exposed/unexposed cells) (C1 (IC50), 24 h (Expo11)): 0.54
- NOS2A gene expression level RES (exposed/unexposed cells) (C1 (IC50), 24 h (Expo11)): 0.54
- PARA gene expression level RES (exposed/unexposed cells) (C1 (IC50), 24 h (Expo11)): 0.38
- PGR gene expression level RES (exposed/unexposed cells) (C1 (IC50), 24 h (Expo11)): 0.42
- RAD50 gene expression level RES (exposed/unexposed cells) (C1 (IC50), 24 h (Expo11)): 0.63
- RAD51 gene expression level RES (exposed/unexposed cells) (C1 (IC50), 24 h (Expo11)): 0.49
- SOD1 gene expression level RES (exposed/unexposed cells) (C1 (IC50), 24 h (Expo11)): 0.76
- TF1 gene expression level RES (exposed/unexposed cells) (C1 (IC50), 24 h (Expo11)): 0.68
- THBS1 gene expression level RES (exposed/unexposed cells) (C1 (IC50), 24 h (Expo11)): 0.39
- TP53 gene expression level RES (exposed/unexposed cells) (C1 (IC50), 24 h (Expo11)): 0.54
- TUBA1 gene expression level RES (exposed/unexposed cells) (C1 (IC50), 24 h (Expo11)): 0.38
- XBP1 gene expression level RES (exposed/unexposed cells) (C1 (IC50), 24 h (Expo11)): 0.50
- A2M gene expression level RES (exposed/unexposed cells) (C1 (IC50), 48 h (Expo12)): 0.03
- AITCH gene expression level RES (exposed/unexposed cells) (C1 (IC50), 48 h (Expo12)): 0.03
- ALB gene expression level RES (exposed/unexposed cells) (C1 (IC50), 48 h (Expo12)): 0.01
- APAF1 gene expression level RES (exposed/unexposed cells) (C1 (IC50), 48 h (Expo12)): 0.05
- AR gene expression level RES (exposed/unexposed cells) (C1 (IC50), 48 h (Expo12)): 0.04
- ATF6 gene expression level RES (exposed/unexposed cells) (C1 (IC50), 48 h (Expo12)): 0.05
- ATM gene expression level RES (exposed/unexposed cells) (C1 (IC50), 48 h (Expo12)): 0.04
- BAX gene expression level RES (exposed/unexposed cells) (C1 (IC50), 48 h (Expo12)): 0.05
- BCL2 gene expression level RES (exposed/unexposed cells) (C1 (IC50), 48 h (Expo12)): 0.04
- BZRP gene expression level RES (exposed/unexposed cells) (C1 (IC50), 48 h (Expo12)): 0.04
- C12ORF8 gene expression level RES (exposed/unexposed cells) (C1 (IC50), 48 h (Expo12)): 0.05
- CALR gene expression level RES (exposed/unexposed cells) (C1 (IC50), 48 h (Expo12)): 0.04
- CDC25C gene expression level RES (exposed/unexposed cells) (C1 (IC50), 48 h (Expo12)): 0.04
- CDK4 gene expression level RES (exposed/unexposed cells) (C1 (IC50), 48 h (Expo12)): 0.06
- CDKN1A gene expression level RES (exposed/unexposed cells) (C1 (IC50), 48 h (Expo12)): 0.02
- CREB1 gene expression level RES (exposed/unexposed cells) (C1 (IC50), 48 h (Expo12)): 0.03
- CTSB gene expression level RES (exposed/unexposed cells) (C1 (IC50), 48 h (Expo12)): 0.05
- CTSD gene expression level RES (exposed/unexposed cells) (C1 (IC50), 48 h (Expo12)): 0.03
- EGF gene expression level RES (exposed/unexposed cells) (C1 (IC50), 48 h (Expo12)): 0.04
- EPHX1 gene expression level RES (exposed/unexposed cells) (C1 (IC50), 48 h (Expo12)): 0.07
- FOS gene expression level RES (exposed/unexposed cells) (C1 (IC50), 48 h (Expo12)): 0.04
- GADD45A gene expression level RES (exposed/unexposed cells) (C1 (IC50), 48 h (Expo12)): 0.04
- GPX1 gene expression level RES (exposed/unexposed cells) (C1 (IC50), 48 h (Expo12)): 0.02
- GSS gene expression level RES (exposed/unexposed cells) (C1 (IC50), 48 h (Expo12)): 0.04
- GSTM3 gene expression level RES (exposed/unexposed cells) (C1 (IC50), 48 h (Expo12)): 0.06
- HOXD1 gene expression level RES (exposed/unexposed cells) (C1 (IC50), 48 h (Expo12)): 0.03
- HSPA5 gene expression level RES (exposed/unexposed cells) (C1 (IC50), 48 h (Expo12)): 0.06
- HSPA9B gene expression level RES (exposed/unexposed cells) (C1 (IC50), 48 h (Expo12)): 0.05
- JUN gene expression level RES (exposed/unexposed cells) (C1 (IC50), 48 h (Expo12)): 0.05
- MDM2 gene expression level RES (exposed/unexposed cells) (C1 (IC50), 48 h (Expo12)): 0.05
- NFKB1 gene expression level RES (exposed/unexposed cells) (C1 (IC50), 48 h (Expo12)): 0.04
- NOS2A gene expression level RES (exposed/unexposed cells) (C1 (IC50), 48 h (Expo12)): 0.04
- PARA gene expression level RES (exposed/unexposed cells) (C1 (IC50), 48 h (Expo12)): 0.04
- PGR gene expression level RES (exposed/unexposed cells) (C1 (IC50), 48 h (Expo12)): 0.04
- RAD50 gene expression level RES (exposed/unexposed cells) (C1 (IC50), 48 h (Expo12)): 0.06
- RAD51 gene expression level RES (exposed/unexposed cells) (C1 (IC50), 48 h (Expo12)): 0.05
- SOD1 gene expression level RES (exposed/unexposed cells) (C1 (IC50), 48 h (Expo12)): 0.05
- TF1 gene expression level RES (exposed/unexposed cells) (C1 (IC50), 48 h (Expo12)): 0.05
- THBS1 gene expression level RES (exposed/unexposed cells) (C1 (IC50), 48 h (Expo12)): 0.05
- TP53 gene expression level RES (exposed/unexposed cells) (C1 (IC50), 48 h (Expo12)): 0.05
- TUBA1 gene expression level RES (exposed/unexposed cells) (C1 (IC50), 48 h (Expo12)): 0.04
- XBP1 gene expression level RES (exposed/unexposed cells) (C1 (IC50), 48 h (Expo12)): 0.05
- A2M gene expression level RES (exposed/unexposed cells) (C2 (IC50/10), 24 h (Expo21)): 0.14
- AITCH gene expression level RES (exposed/unexposed cells) (C2 (IC50/10), 24 h (Expo21)): 0.08
